Test results from publication PMC11356571, “The Comparative Metabolism of a Novel Hepatocellular Carcinoma Therapeutic Agent, 2,3-Diamino-N-(4-(benzo[d]thiazol-2-yl)phenyl)propanamide, in Human and Animal Hepatocytes” (Metabolites, 2024).

Key:
Assay type in all cases: in vitro ADME
mouse hepatocytes = test: Metabolite characterization in mouse hepatocytes; settings: mouse hepatocyte 1 h incubates of ETN101; ND:<1.2E+05 peak area
Procedure: (§1) We mixed 60 μL aliquots of 40 μM ETN101 in incubation medium and an equal volume of human, mouse, rat, dog, or monkey hepatocyte suspension in 96-well plates and incubated for 0 or 1 h in a CO2 incubator at 37 °C. The reactions were quenched by adding 120 µL of ice-cold acetonitrile to each well, and the cell suspension was sonicated for 5 min at 4 °C. Subsequently, centrifugation was carried out at 15,000× g for 10 min at 4 °C. Next, the supernatants were evaporated to dryness using a vacuum concentrator, and residues were re-dissolved in 70 μL of 30% acetonitrile. Each sample (5 μL aliquots) was analyzed using LC–HRMS system.
(§2) For metabolite characterization, a Vanquish HPLC system (Thermo Fisher Scientific, San José, CA, USA) coupled with a Q-Exactive Orbitrap mass spectrometer (Thermo Fisher Scientific Inc., Waltham, MA, USA) was used at Core Research Support Center for Natural Products and Medical Materials at Yeungnam University. […] The eluent from the column was directly injected into the mass spectrometer using a heated electrospray ionization (HESI) source in positive ionization mode. […] The spray voltage was 3.0 kV and the capillary temperature was 320 °C. Full scan MS^1 with a data-dependent MS^2 acquisition mode was applied to obtain MS^1 scan data ranging from m/z 80 to 900, at a resolution of 70,000, whereas data-dependent MS^2 spectra were acquired for the five most abundant peaks per cycle at a resolution of 35,000. The parallel reaction monitoring (PRM) mode was used to obtain the MS^2 spectra of putative metabolites detected at low peak intensities in the data-dependent MS^2 acquisition mode. Data were collected and interpreted using Thermo Scientific Xcalibur™ Software (Thermo Fisher Scientific).

monkey hepatocytes = test: Metabolite characterization in monkey hepatocytes; settings: monkey hepatocyte 1 h incubates of ETN101; ND:<1.2E+05 peak area
Procedure: as §1, §2

CYP1A2 = target: T1, CYP1A2 (Homo sapiens, UniProt P05177); test: Incubation with human cDNA-expressed CYP1A2; settings: CYP1A2, 30 min at 37 °C with NADPH; ETN101 10 μM or M1 1 μM
T1 construct: purchased Cypex Ltd. (Dundee, UK)
T1 sequence (P05177 1-516): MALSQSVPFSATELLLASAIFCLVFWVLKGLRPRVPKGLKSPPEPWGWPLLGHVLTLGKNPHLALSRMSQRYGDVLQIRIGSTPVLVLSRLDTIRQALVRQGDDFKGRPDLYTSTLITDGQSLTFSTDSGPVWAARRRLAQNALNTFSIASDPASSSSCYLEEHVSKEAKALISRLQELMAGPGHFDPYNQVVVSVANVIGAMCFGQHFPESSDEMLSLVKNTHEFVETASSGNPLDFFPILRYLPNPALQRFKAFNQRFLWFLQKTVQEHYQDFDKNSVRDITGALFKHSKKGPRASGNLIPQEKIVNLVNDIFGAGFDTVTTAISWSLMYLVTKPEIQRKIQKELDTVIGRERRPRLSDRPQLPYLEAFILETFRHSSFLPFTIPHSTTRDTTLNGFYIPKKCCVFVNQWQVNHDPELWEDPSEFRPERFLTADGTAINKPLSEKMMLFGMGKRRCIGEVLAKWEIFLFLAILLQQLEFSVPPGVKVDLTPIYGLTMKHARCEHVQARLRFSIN
Procedure: ETN101 or M1 was incubated with nine human cDNA-expressed CYP enzymes (1A2, 2A6, 2B6, 2C8, 2C9, 2C19, 2D6, 2E1, and 3A4) to identify the CYPs involved in the metabolism of ETN101. Based on the preliminary study, the incubation conditions were determined as follows: Briefly, reaction mixtures of 50 μL containing ETN101 (final concentration: 10 μM) or M1 (final concentration: 1 μM), and CYPs (final amount: 5 pmol for CYP1A2, 2A6, 2C8, 2C9, 2C19, 2D6, and 3A4; 10 pmol for CYP2B6 and 2E1) were prepared in 0.1 M potassium phosphate buffer. The reaction was initiated by adding 50 μL of NADPH- regenerating system; the mixtures were incubated for 0 min or 30 min at 37 °C in triplicate. Reactions were terminated by the addition of 100 μL of ice-cold acetonitrile containing the IS (camptothecin, 200 ng/mL). Samples were centrifuged at 13,000 rpm for 5 min at 4 °C. An aliquot of 2 μL supernatant was injected in LC–MS/MS system.
For enzyme characterization, an Agilent 6460 triple quadrupole mass spectrometer coupled with a 1260 HPLC system (Agilent Technologies, Santa Clara, CA, USA) and a Kinetex Halo® C18 column (2.7 μm, 2.1 × 50 mm, Advanced Material Technology, Wilmington, DE, USA) were used for chromatographic separation. […] ETN101, M1, and M2 were detected via MRM using ESI in the positive mode. […]

SMILES | Relative peak area (%) (mouse hepatocytes) | Relative peak area (%) (monkey hepatocytes) | Percentage remaining (CYP1A2)
NCC(N)C(=O)Nc1ccc(-c2nc3ccccc3s2)cc1 (stereo not drawn) [ETN101, 2,3-diamino-N-(4-(benzo[d]thiazol-2-yl)phenyl)propanamide] | 26.8% | 69.0% | 126.3%
Nc1ccc(-c2nc3ccccc3s2)cc1 [M1, 2-(4-aminophenyl)benzothiazole] | 71.8% | 21.5% | 5.3%
